Measured values from US20220202739A1, “ENDOCANNABINOID MIMETIC AND ANTI-INFLAMMATORY COMPOUND CONTAINING COMPOSITIONS, METHODS OF PREPARATION AND USES THEREOF” (priority 2019, published 2022).

Columns and labels:
Format in all cases: cell-based, human
Settings in all cases: pooled keratinocytes, 20 ppm, 24 hr
[1] = test system: IL1A; assay: Gene expression custom microarray, pooled keratinocyte line (Example 3): IL1A
Experimental: (§1) Cell cultures: Received and began culture of pooled keratinocyte line from Promocell (C-12006; Lot #448Z026). Cells were seeded into a 75 cm2 flask and 2 6 well dishes for expansion and exposure per manufacturer's protocol using Keratinocyte Growth Medium (C2011B), Keratinocyte Supplement Mix (C39016) and CaCl (C34005). 2 ml of prepared solution were added to each of the 6 wells and 7 ml was added to the 75 cm2 flask.
(§2) Experimental phase: When the appropriate quantity of cells were grown, they were detached as described above, but at the final step were seeded into each well of one or more 6 well dishes. Each well received 2 ml of the cells suspended in suspension so they were seeded equally. The dishes were returned to the incubator until 85-95% confluency is reached.
(§3) It was at this stage that all wells were rinsed in PBS after aspirating the growth media. The compound(s) to be tested were previously mixed into a suitable solvent (e.g., DMSO or ethanol) that can be diluted to the desired concentration of test compound (10 μl) in the culture wells without exceeding maximum solvent concentrations and adversely effecting cell viability, and mixed with Basal Keratinocyte Media. NOTE: Standard maximum levels of solvent are 0.1% for DMSO and 0.5% for ETOH. The concentration for each tested compound/natural extract is generally listed in the left-hand column of Table 4. For certain compositions (e.g., compositions 15 and 16), other concentrations were used and are noted in the body of Table 4.
(§4) Every 2 wells on the 6 well plate served as a biological replicate for the purposes of RNA isolation and genetic expression evaluations making each 6 well dish an n=3 for the test compound contained in the media. […]
(§5) At the end of the 24 hr time period, the plates were removed from the incubator, the test media aspirated, and the cells rinsed with PBS. […] Allow 1 minute for saturation of the membrane and then centrifuge for 2 minutes to complete the RNA elution. • Quantify the quantity of RNA and store at −20 C° until use (no more than 1 month) […]

[2] = test system: TLR2; assay: Gene expression custom microarray, pooled keratinocyte line (Example 3): TLR2
Experimental: as §1, §2, §3, §4, §5

[3] = test system: CERS3; assay: Gene expression custom microarray, pooled keratinocyte line (Example 3): CERS3
Experimental: as §1, §2, §3, §4, §5

[4] = test system: KLF4; assay: Gene expression custom microarray, pooled keratinocyte line (Example 3): KLF4
Experimental: as §1, §2, §3, §4, §5

[5] = test system: ITGB1; assay: Gene expression custom microarray, pooled keratinocyte line (Example 3): ITGB1
Experimental: as §1, §2, §3, §4, §5

[6] = test system: MMP1; assay: Gene expression custom microarray, pooled keratinocyte line (Example 3): MMP1
Experimental: as §1, §2, §3, §4, §5

Row | SMILES | ↓IL1A gene expression, fold increase or decrease vs untreated cells [1] | ↑TLR2 gene expression, fold increase or decrease vs untreated cells [2] | ↑CERS3 gene expression, fold increase or decrease vs untreated cells [3] | ↑KLF4 gene expression, fold increase or decrease vs untreated cells [4] | ↑ITGB1 gene expression, fold increase or decrease vs untreated cells [5] | ↓MMP1 gene expression, fold increase or decrease vs untreated cells [6]
1 | C=C(C)[C@@H]1CCC(C)=C[C@H]1c1c(O)cc(CCCCC)cc1O [CBD, cannabidiol, reference compound] | 2.3 fold | 2.8 fold | 1.7 fold | 3.5 fold | 1.8 fold | 6.5 fold
2 | CCCCCCCCCCCCCCCC(=O)NCCO [N-palmitoylethanolamide] | −1.2 fold | −1.3 fold | 2 fold | 1.7 fold | −4 fold | 12.2 fold
3 | CC(C)[C@]12O[C@H]1[C@@H]1O[C@]13[C@]1(O[C@H]1C[C@H]1C4=C(CC[C@@]13C)C(=O)OC4)[C@@H]2O [Triptolide] | −14 fold | −2.9 fold | −1.5 fold | 1.5 fold | −14.7 fold | 1.2 fold
